Experimental findings from ChEMBL document CHEMBL5543142, “Discovery of YFJ-36: Design, Synthesis, and Antibacterial Activities of Catechol-Conjugated β-Lactams against Gram-Negative Bacteria” (J Med Chem, 2024) are described below.

Data set [1] can be described thus: AUC (0 to infinity) in ICR mouse at 20 mg/kg,iv administration measured upto 6 hrs by LC-MS/MS analysis. Format: ADME, organism-based. The note with it: in vivo.
The nature of data set [2]: Clearance in ICR mouse at 20 mg/kg,iv administration measured upto 6 hrs by LC-MS/MS analysis. Format: ADME, organism-based. The note with it: in vivo.
The nature of data set [3]: Half life in ICR mouse at 20 mg/kg,iv administration measured upto 6 hrs by LC-MS/MS analysis. Format: ADME, organism-based. The settings on record: in vivo.
The nature of data set [4]: MRT in ICR mouse at 20 mg/kg,iv administration measured upto 6 hrs by LC-MS/MS analysis. Format: ADME, organism-based. The settings on record: in vivo.
The nature of data set [5]: Volume of distribution at steady state in ICR mouse at 20 mg/kg,iv administration measured upto 6 hrs by LC-MS/MS analysis. Format: ADME, organism-based. The note with it: in vivo, read-out: Vdss.
The test system of data set [6] is Escherichia coli. The data set is described as follows: Antibacterial activity against ESBL-producing multidrug-resistant Escherichia coli clinical isolate 14-1 assessed as inhibition of bacterial growth incubated for 18 to 20 hrs by two fold serial dilution assay. Format: functional. The note with it: time 18-20 hrs.
Data set [7] relates to Escherichia coli. The data set is described as follows: Antibacterial activity against ESBL-producing multidrug-resistant Escherichia coli clinical isolate 14-2 assessed as inhibition of bacterial growth incubated for 18 to 20 hrs by two fold serial dilution assay. Format: functional. The settings on record: time 18-20 hrs.
For data set [8], the system named is Escherichia coli. Briefly: Antibacterial activity against ESBL-producing multidrug-resistant Escherichia coli clinical isolate 14-4 assessed as inhibition of bacterial growth incubated for 18 to 20 hrs by two fold serial dilution assay. Type of data set: functional. The note with it: time 18-20 hrs.
For data set [9], the system named is Acinetobacter baumannii. Briefly: Antibacterial activity against OXA-23 producing multidrug-resistant Acinetobacter baumannii clinical isolate 15-1 assessed as inhibition of bacterial growth incubated for 18 to 20 hrs by two fold serial dilution assay. Format: functional. The settings on record: time 18-20 hrs.
The test system of data set [10] is Acinetobacter baumannii. The data set is described as follows: Antibacterial activity against OXA-23 producing multidrug-resistant Acinetobacter baumannii clinical isolate 15-2 assessed as inhibition of bacterial growth incubated for 18 to 20 hrs by two fold serial dilution assay. The settings on record: time 18-20 hrs. Format: functional.
The test system of data set [11] is Acinetobacter baumannii. The data set is described as follows: Antibacterial activity against OXA-23 producing multidrug-resistant Acinetobacter baumannii clinical isolate 15-3 assessed as inhibition of bacterial growth incubated for 18 to 20 hrs by two fold serial dilution assay. Format: functional. The note with it: time 18-20 hrs.
For data set [12], the system named is Acinetobacter baumannii. The data set is described as follows: Antibacterial activity against OXA-23 producing multidrug-resistant Acinetobacter baumannii clinical isolate 15-4 assessed as inhibition of bacterial growth incubated for 18 to 20 hrs by two fold serial dilution assay. Format: functional. The settings on record: time 18-20 hrs.
Data set [13] relates to Acinetobacter baumannii. The data set is described as follows: Antibacterial activity against OXA-23 producing multidrug-resistant Acinetobacter baumannii clinical isolate 15-5 assessed as inhibition of bacterial growth incubated for 18 to 20 hrs by two fold serial dilution assay. Format: functional. The note with it: time 18-20 hrs.
Data set [14] has as its system Klebsiella pneumoniae. Briefly: Antibacterial activity against KPC-2 producing multidrug-resistant Klebsiella pneumoniae clinical isolate 15-1 assessed as inhibition of bacterial growth incubated for 18 to 20 hrs by two fold serial dilution assay. Format: functional. The note with it: time 18-20 hrs.
Data set [15] deals with Klebsiella pneumoniae. The data set is described as follows: Antibacterial activity against KPC-2 producing multidrug-resistant Klebsiella pneumoniae clinical isolate 15-2 assessed as inhibition of bacterial growth incubated for 18 to 20 hrs by two fold serial dilution assay. Type of data set: functional. The note with it: time 18-20 hrs.
Data set [16] has as its system Klebsiella pneumoniae. The data set is described as follows: Antibacterial activity against KPC-2 producing multidrug-resistant Klebsiella pneumoniae clinical isolate 15-5 assessed as inhibition of bacterial growth incubated for 18 to 20 hrs by two fold serial dilution assay. Format: functional. The settings on record: time 18-20 hrs.
In data set [17] the test system is Escherichia coli. The data set is described as follows: Antibacterial activity against Escherichia coli ATCC35218 assessed as inhibition of bacterial growth incubated for 18 to 20 hrs by two fold serial dilution assay. Type of data set: functional. The note with it: time 18-20 hrs.
Data set [18] deals with Pseudomonas aeruginosa. The data set is described as follows: Antibacterial activity against IMP-4 producing multidrug-resistant Pseudomonas aeruginosa clinical isolate 17-13 assessed as inhibition of bacterial growth incubated for 18 to 20 hrs by two fold serial dilution assay. Type of data set: functional. The note with it: time 18-20 hrs.
Data set [19] deals with Pseudomonas aeruginosa. The data set is described as follows: Antibacterial activity against IMP-4 producing multidrug-resistant Pseudomonas aeruginosa clinical isolate 19-17 assessed as inhibition of bacterial growth incubated for 18 to 20 hrs by two fold serial dilution assay. Format: functional. The settings on record: time 18-20 hrs.
The subject of data set [20] is Acinetobacter baumannii. Briefly: Antibacterial activity against OXA-23 producing multidrug-resistant Acinetobacter baumannii clinical isolate 17-2 assessed as inhibition of bacterial growth incubated for 18 to 20 hrs by two fold serial dilution assay. The note with it: time 18-20 hrs. Format: functional.
Data set [21] relates to Acinetobacter baumannii. The data set is described as follows: Antibacterial activity against OXA-23 producing multidrug-resistant Acinetobacter baumannii clinical isolate 17-3 assessed as inhibition of bacterial growth incubated for 18 to 20 hrs by two fold serial dilution assay. Format: functional. The settings on record: time 18-20 hrs.
For data set [22], the system named is Pseudomonas aeruginosa. Briefly: Antibacterial activity against IMP-4 producing multidrug-resistant Pseudomonas aeruginosa clinical isolate 19-5 assessed as inhibition of bacterial growth incubated for 18 to 20 hrs by two fold serial dilution assay. The settings on record: time 18-20 hrs. Type of data set: functional.
The subject of data set [23] is Klebsiella pneumoniae. Briefly: Antibacterial activity against KPC-2 producing multidrug-resistant Klebsiella pneumoniae clinical isolate 15-3 assessed as inhibition of bacterial growth incubated for 18 to 20 hrs by two fold serial dilution assay. Format: functional. The note with it: time 18-20 hrs.
Data set [24] has as its system Pseudomonas aeruginosa. Briefly: Antibacterial activity against IMP-4 producing multidrug-resistant Pseudomonas aeruginosa clinical isolate 19-1 assessed as inhibition of bacterial growth incubated for 18 to 20 hrs by two fold serial dilution assay. Type of data set: functional. The note with it: time 18-20 hrs.

The structures appear in SMILES notation.

For orientation: AUC(0-inf) means total exposure, with the tail of the curve extrapolated. Broadly, the clearance is the volume of plasma or blood freed of the substance per unit of time. A low value points to a low capacity for elimination. By half-life is commonly meant the time needed for the level to fall by half in the phase considered. By MRT is commonly meant a mean duration of stay, worked out from the concentration-time curve. `Cl.Nc1nc(/C(=N/OC(C(=O)O)C2CCC(F)(F)CC2)C(=O)N[C@@H]2C(=O)N3C(C(=O)O)=C(CSCCNC(=O)c4ccc(O)c(O)c4Cl)CS[C@H]23)cs1` (stereo partly specified) showed an AUC(0-inf) in data set [1] of 6340 ng·h/mL. Also, the clearance in data set [2] worked out at 54 mL/min/kg. Moreover, the half-life in data set [3] was 46.8 min. This compound also showed an MRT in data set [4] of 18.6 min. Besides, the Vd in data set [5] came to 0.997 L/kg.

In general, MIC refers to the lowest concentration that inhibits growth of the organism. On to `Nc1nc(/C(=N/OC(C(=O)O)C2CCCCC2)C(=O)N[C@@H]2C(=O)N3C(C(=O)O)=C(CSCCNC(=O)c4ccc(O)c(O)c4Cl)CS[C@H]23)c(Cl)s1.O=C(O)C(F)(F)F` (stereo partly specified), for which the minimum inhibitory concentration (MIC) in the data set on Escherichia coli [6] came to 0.25 µg/mL; in the data set with Escherichia coli [7] it was 0.5 µg/mL; with Escherichia coli [8], 0.5 µg/mL; in the data set with Acinetobacter baumannii [9], 4 µg/mL; with Acinetobacter baumannii [10], 2 µg/mL; with Acinetobacter baumannii [11] it was 4 µg/mL. The MIC was 2 µg/mL with Acinetobacter baumannii [12]; 4 µg/mL in the data set with Acinetobacter baumannii [13]; 1 µg/mL in the data set on Klebsiella pneumoniae [14]; 1 µg/mL in the data set on Klebsiella pneumoniae [15]; 1 µg/mL in the data set on Klebsiella pneumoniae [16]; 0.125 µg/mL in the data set on Escherichia coli [17]. Moreover, the MIC with Pseudomonas aeruginosa [18] stood at 0.25 µg/mL; with Pseudomonas aeruginosa [19], 0.5 µg/mL; in the data set with Acinetobacter baumannii [20] it was 1 µg/mL; with Acinetobacter baumannii [21] it was 2 µg/mL; in the data set with Pseudomonas aeruginosa [22], 1 µg/mL; in the data set with Klebsiella pneumoniae [23] it was 2 µg/mL.

As for `Nc1nc(/C(=N/OC(C(=O)O)C2CCC(F)(F)CC2)C(=O)N[C@@H]2C(=O)N3C(C(=O)O)=C(CSCCNC(=O)c4ccc(O)c(O)c4Cl)CS[C@H]23)c(Br)s1.O=C(O)C(F)(F)F` (stereo partly specified), the MIC in the data set on Escherichia coli [6] is 0.125 µg/mL; in the data set on Escherichia coli [7], 0.125 µg/mL; with Escherichia coli [8], 0.06 µg/mL; in the data set on Acinetobacter baumannii [9], 2 µg/mL; in the data set on Acinetobacter baumannii [10] it was 0.5 µg/mL; in the data set on Acinetobacter baumannii [11] it was 1 µg/mL. Also, the minimum inhibitory concentration (MIC) with Acinetobacter baumannii [12] was 4 µg/mL; in the data set with Acinetobacter baumannii [13], 4 µg/mL; in the data set on Klebsiella pneumoniae [14], 0.5 µg/mL; in the data set with Klebsiella pneumoniae [15] it was 1 µg/mL; with Klebsiella pneumoniae [16], 0.25 µg/mL; in the data set with Escherichia coli [17] it was 0.06 µg/mL. Besides, the MIC with Pseudomonas aeruginosa [18] was determined as 0.06 µg/mL; in the data set on Pseudomonas aeruginosa [19] it was 0.125 µg/mL; in the data set on Acinetobacter baumannii [20], 0.125 µg/mL; in the data set on Acinetobacter baumannii [21] it was 4 µg/mL; with Pseudomonas aeruginosa [22], 0.25 µg/mL; in the data set with Pseudomonas aeruginosa [24] it was 8 µg/mL. Moreover, in the data set on Klebsiella pneumoniae [23], the minimum inhibitory concentration (MIC) was determined as 0.5 µg/mL. The compound further returned a total exposure AUC(0-inf) in data set [1] of 3910 ng·h/mL. In data set [2], this compound came in with a clearance of 92.9 mL/min/kg. Also, in data set [3], the half-life is 200 min. This compound displayed an MRT in data set [4] of 96.6 min. Also, the Vd in data set [5] was 9.48 L/kg.

Compound `CC(C)(O/N=C(\C(=O)N[C@@H]1C(=O)N2C(C(=O)[O-])=C(C[N+]3(CCNC(=O)c4ccc(O)c(O)c4Cl)CCCC3)CS[C@H]12)c1csc(N)n1)C(=O)O.O=C(O)C(F)(F)F` registered an AUC(0-inf) in [1] of 11600 ng·h/mL. The same compound yielded a clearance in data set [2] of 25.2 mL/min/kg. This compound had a half-life in data set [3] of 33 min. This compound also came in with an MRT in data set [4] of 26.4 min. Also, the Vd in [5] turned out to be 0.663 L/kg.

Regarding `Nc1nc(/C(=N/OC(C(=O)O)C2CCC(F)(F)CC2)C(=O)N[C@@H]2C(=O)N3C(C(=O)O)=C(CSCCNC(=O)c4ccc(O)c(O)c4Cl)CS[C@H]23)ns1.O=C(O)C(F)(F)F` (stereo partly specified), the minimum inhibitory concentration (MIC) in the data set with Escherichia coli [6] came out at 1 µg/mL; in the data set with Escherichia coli [7] it was 4 µg/mL; in the data set with Escherichia coli [8], 1 µg/mL; in the data set on Klebsiella pneumoniae [14], 16 µg/mL; in the data set with Klebsiella pneumoniae [15] it was 32 µg/mL; in the data set with Klebsiella pneumoniae [16], 16 µg/mL. The MIC with Escherichia coli [17] came out at 0.25 µg/mL; in the data set on Pseudomonas aeruginosa [18] it was 0.5 µg/mL; with Pseudomonas aeruginosa [19], 1 µg/mL; with Acinetobacter baumannii [20], 0.25 µg/mL; with Acinetobacter baumannii [21] it was 0.25 µg/mL; in the data set with Pseudomonas aeruginosa [22] it was 4 µg/mL. Moreover, the minimum inhibitory concentration (MIC) with Pseudomonas aeruginosa [24] came to 8 µg/mL; with Klebsiella pneumoniae [23], 16 µg/mL.
